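Dose response: 5 concentrations. Exposure: 48 h. Format: 96-well plates. Endpoint: linear interpolation; highest concentration if not reached. GI50 is the concentration that inhibits growth by half. TGI marks complete inhibition of growth.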 Where a SMILES comes first, the peptide text is derived from it. [ ]: non-standard residue; d: D form. The star is where a group is joined. Phe(4-NO2) = N[CH](Cc1ccc([N+](=O)[O-])cc1)C(=O)O; Palmitoyl = CCCCCCCCCCCCCCCC(=O)*; Boc = CC(C)(C)OC(=O)*; OtBu = CC(C)(C)O*

What all share (test): NCI-60 cell line screen, 48 h
For assay [1], the system named is CCRF-CEM leukemia.
The test system of assay [2] is SW-620 colon.
The subject of assay [3] is OVCAR-4 ovarian.
In assay [4] the test system is UACC-257 melanoma.
In assay [5] the test system is RPMI-8226 leukemia.
Assay [6] concerns SR leukemia.
Assay [7] concerns SK-MEL-2 melanoma.
Assay [8] relates to KM12 colon.
The subject of assay [9] is SNB-75 CNS.
Assay [10] has as its system MALME-3M melanoma.

With `COC(=O)C(Cc1ccc([N+](=O)[O-])cc1)NC(=O)C(CC(=O)OC(C)(C)C)NC(=O)OC(C)(C)C` (stereo not given) (Boc-Asp(OtBu)-[Phe(4-NO2)]-OMe; configuration not given here), the TGI in [1] was over 100 µM; in assay [2] it was over 100 µM; in [3] it was over 100 µM; in assay [4] it was over 100 µM; in assay [5], over 100 µM; in assay [6], 54 µM. The TGI in assay [7], in assay [8], in assay [9] and in assay [10] was over 100 µM throughout.

With `O=C(O)c1ccc(Nc2cnc3ccc(C(F)(F)F)cc3n2)cc1`, the TGI in assay [1] was 43.1 µM; in [2], 46.6 µM; in assay [3], 40.7 µM; in assay [4] it was 93.9 µM; in assay [5], 48 µM; in assay [6] it was 43.8 µM. Besides, the TGI in [7] was 30.7 µM; in assay [8], 31.4 µM; in assay [9] it was 37.2 µM; in assay [10], over 100 µM.

`C/C=C\C(CC(=O)O)CC(=O)NCCC1CN(S(=O)(=O)C(F)(F)F)c2ccccc21` (stereo not given): the TGI in [1], in assay [2], in assay [3], in [4], in assay [5] and in assay [6] was over 100 µM throughout. Besides, the TGI in assay [7], in [8], in [9] and in assay [10] was over 100 µM in each case.

With `CCCCCCCCCCCCCCCC(=O)NC(CCCCN)C(=O)NCC(=O)NC(Cc1ccccc1)C(=O)N1CCCC1C(=O)NC(CO)C(=O)NC(Cc1ccc(O)cc1)C(=O)NC(CCCCN)C(=O)NC(CC(C)C)C(=O)NC(CCCN=C(N)N)C(=O)N1CCCC1C(=O)NCC(N)=O` (stereo not given) (Palmitoyl-KGFPSYKLRPG-NH2; configuration not given here), the GI50 in assay [1] is 20.5 µM; in [2] it was 26 µM; in assay [3], 30.5 µM; in [4] it was 21.8 µM; in assay [5] it was 13.1 µM; in assay [6] it was 17.7 µM. For the same compound, the GI50 in assay [7] is 43.5 µM; in [8] it was 19.4 µM; in assay [9], 22.7 µM; in [10] it was over 100 µM. Moreover, the TGI in assay [1] stood at 40.2 µM; in assay [2], 79.5 µM; in assay [3], 78.7 µM; in assay [4] it was 48 µM; in [5], 32.5 µM; in [6], 39.4 µM. The TGI in assay [7] was over 100 µM; in assay [8], 46.6 µM; in [9] it was 49.6 µM; in [10], over 100 µM.

As to `Cc1ccc(S(=O)(=O)NC(=O)NS(=O)(=O)O)cc1`, the TGI in assay [1], in assay [2], in assay [3], in assay [4], in [5] and in [6] was over 100 µM in each case. The TGI in [7], in [8], in assay [9] and in assay [10] was over 100 µM in each case.

Consider `O=C(NCCCCl)c1c(O)c2ccccc2[nH]c1=O`, for which the TGI in assay [1], in assay [2], in assay [3], in [4], in assay [5] and in assay [6] was over 100 µM in each case. Further, the TGI in assay [7] is over 100 µM; in assay [8] it was over 100 µM; in assay [9] it was over 77.8 µM; in assay [10] it was over 100 µM.

Take `CN(C)CCn1c(=O)c2ccc(NCCNCCO)c3c(=O)c4cc(O)ccc4n(c1=O)c23`: the TGI in [1] is 2.05 µM; in [2], 11.2 µM; in assay [3], 3.55 µM; in assay [4], 19.2 µM; in [5], 8.43 µM; in [6] it was 0.619 µM. The TGI in assay [7] was determined as 6.85 µM; in assay [8], 26.6 µM; in [9] it was 6.2 µM; in [10] it was 17.1 µM.

With `CCC1(O)CN(CCOC)[C@H]2C[C@@H]1C(=O)c1[nH]c3ccccc3c12` (stereo not given in full), the TGI in [1], in [2], in [3], in [4], in [5] and in assay [6] was over 100 µM throughout. The TGI in [7], in assay [8], in [9] and in [10] was over 100 µM each time.

`COc1cc(O)c2c(c1)C(O)C(O)CC1OC1C(=O)/C=C/CC(C)OC2=O` (stereo not given): the TGI in [1] is 8.8 µM; in [2] it was 6.84 µM; in [3], over 52.9 µM; in assay [4], 2.48 µM; in [5], 34.5 µM; in [6], over 45.4 µM. The TGI in [7] stood at 13.5 µM; in [8], 27.1 µM; in assay [9], 24.6 µM; in assay [10], 6.91 µM.

These data come from PubChem BioAssay (NCI).
